The record followed here is US20230011571A1, “SMALL MOLECULE FURIN INHIBITORS FOR TREATING INFECTIOUS DISEASES” (BP Asset V, Inc., priority 2019, published 2023).

Type in all cases: cell-based
In one test the test system is dengue virus (DENV). Nature of the test: microbe, parasite or virus in culture. The following applies: Dengue virus, Vero, 120 h, read-out: Percent viral inhibition DENY.
For another test, the system named is Marburg virus (MARV). The test is described as follows: organism not typed. The conditions noted are these: Vero, 72 h, read-out: Percent viral inhibition MARV.
Test [1] deals with Chikungunya virus (CHIKV). The test is described as follows: microbe, parasite or virus in culture. The conditions noted are these: Chikungunya virus, Vero, 48 h, read-out: Percent viral inhibition CHKV.

A word on the inhibition: it is the percentage by which the read-out fell short of the control. Take `COC(=O)NCC1CCN(Cc2cc(Oc3cnc(N4CCN(C)CC4)nc3)nc(-c3cc(Cl)cc(Cl)c3)c2)CC1` [Example 63, methyl((1-((2-(3,5-dichlorophenyl)-6-((2-(4-methylpiperazin-1-yl)pyrimidin-5-yl)oxy)pyridin-4-yl)methyl)piperidin-4-yl)methyl)carbamate]: the inhibition at 1 µM in the test on dengue virus (DENV) was found to be 2.35%; in the test on Marburg virus (MARV) it was 14.7%; in test [1], 0%.
In the case of `CS(=O)(=O)CCCN1CCN(c2ccc(Oc3cc(CN4CCC(CCC(=O)O)CC4)cc(-c4cc(Cl)cc(Cl)c4)n3)cn2)CC1` [Example 271, 3-(1-((2-(3,5-dichlorophenyl)-6-((6-(4-(3-(methylsulfonyl)propyl)piperazin-1-yl)pyridin-3-yl)oxy)pyridin-4-yl)methyl)piperidin-4-yl)propanoic acid], the inhibition at 1 µM in the test on dengue virus (DENV) came out at 0%; with Marburg virus (MARV), 59.7%; in test [1], 22.5%.
In the case of `CN1CCN(c2ncc(Oc3cc(CN4CC5CC(CC(=O)O)CC5C4)cc(-c4cc(Cl)cc(Cl)c4)n3)cn2)CC1` (stereo not drawn) [Example 129, 2-(2-((2-(3,5-dichlorophenyl)-6-((2-(4-methylpiperazin-1-yl)pyrimidin-5-yl)oxy)pyridin-4-yl)methyl)octahydrocyclopenta[c]pyrrol-5-yl)acetic acid], the figures for the inhibition at 1 µM (in the test on dengue virus (DENV); in the test on Marburg virus (MARV); in test [1]) were 38.5%, 29.8% and 23.6%, respectively.
Taken in the same sequence, the figures for `CNC(=O)NCC1CCN(Cc2cc(Oc3cnc(N4CCN(CCOC)CC4)nc3)nc(-c3cc(Cl)cc(Cl)c3)c2)CC1` [Example 262, 1-((1-((2-(3,5-dichlorophenyl)-6-((2-(4-(2-methoxyethyl)piperazin-1-yl)pyrimidin-5-yl)oxy)pyridin-4-yl)methyl)piperidin-4-yl)methyl)-3-methylurea] were 10.3%, 39.3% and 19%.
Taken in the same sequence, the figures for `COC(=O)C(C)CCN1CCN(c2ncc(Oc3cc(CN4CCC(CNC(C)=O)CC4)cc(-c4cc(Cl)cc(Cl)c4)n3)cn2)CC1` (stereo not drawn) [Example 368, methyl4-(4-(5-((4-((4-(acetamidomethyl)piperidin-1-yl)methyl)-6-(3,5-dichlorophenyl)pyridin-2-yl)oxy)pyrimidin-2-yl)piperazin-1-yl)-2-methylbutanoate] were 65.8%, 65.4% and 32.5%.
Taken in the same sequence, the figures for `CN1CCN(c2ncc(Oc3cc(CN4CCC(OCC(=O)O)C4)cc(-c4cc(Cl)cc(Cl)c4)n3)cn2)CC1` (stereo not drawn) [Example 128, 2-((1-((2-(3,5-dichlorophenyl)-6-((2-(4-methylpiperazin-1-yl)pyrimidin-5-yl)oxy)pyridin-4-yl)methyl)pyrrolidin-3-yl)oxy)acetic acid] were 7.97%, 51.4% and 3.67%.
`O=C(O)CC1CCN(Cc2cc(Oc3cnc(N4CCN(CCF)CC4)nc3)nc(-c3cc(Cl)cc(Cl)c3)c2)CC1` [Example 236, 2-(1-((2-(3,5-dichlorophenyl)-6-((2-(4-(2-fluoroethyl)piperazin-1-yl)pyrimidin-5-yl)oxy)pyridin-4-yl)methyl)piperidin-4-yl)acetic acid]: the inhibition at 1 µM in the test on dengue virus (DENV) amounted to 64.5%; with Marburg virus (MARV), 68.5%; in test [1] it was 39.8%.
Taken in the same sequence, the figures for `CC(=O)NCC1CCN(Cc2cc(Oc3ccc(N4CCN(C(=O)CCC(=O)O)CC4)nc3)nc(-c3cc(Cl)cc(Cl)c3)c2)CC1` [Example 33, 4-(4-(5-((4-((4-(acetamidomethyl)piperidin-1-yl)methyl)-6-(3,5-dichlorophenyl)pyridin-2-yl)oxy)pyridin-2-yl)piperazin-1-yl)-4-oxobutanoic acid] were 49.4%, 67.3% and 36.5%.
